Experimental data published in patent US6037447A, “Glycopeptide compounds” (priority 1998, dated 2000).

Each substance was assayed on Staphylococcus aureus 446 (assay: Standard broth micro-dilution MIC, Staphylococcus aureus 446). Details: not given.
Format: cell-based
Experimental: (§1) The minimal inhibitory concentrations (MICs) were determined using a standard broth micro-dilution assay.

Substance | MIC [µg/mL]
N^4 -(4-(2-(4-(2-(p-formyl-phenoxy)ethoxycarbonyl)benzoyl-oxy)ethoxy)benzyl)vancomycin [Compound 44] | 0.125
N^4 -(4-(2-(2-(2-(p-formyl-phenoxy)ethoxy)ethoxy)ethoxy)benzyl)A82846B [Compound 43] | 2

What follows are substances tested on Staphylococcus aureus 489 (assay: Standard broth micro-dilution MIC, Staphylococcus aureus 489). Details: not given.
Format: cell-based
Experimental: as §1

Substance | MIC [µg/mL]
N^4 -(4-(2-(4-(2-(p-formyl-phenoxy)ethoxycarbonyl)benzoyl-oxy)ethoxy)benzyl)vancomycin [Compound 44] | 0.125
N^4 -(4-(2-(2-(2-(p-formyl-phenoxy)ethoxy)ethoxy)ethoxy)benzyl)A82846B [Compound 43] | 1

These substances were tested on Staphylococcus aureus 447 (assay: Standard broth micro-dilution MIC, Staphylococcus aureus 447). Details: not given.
Format: cell-based
Experimental: as §1

Substance | MIC [µg/mL]
N^4 -(4-(2-(4-(2-(p-formyl-phenoxy)ethoxycarbonyl)benzoyl-oxy)ethoxy)benzyl)vancomycin [Compound 44] | 0.125
N^4 -(4-(2-(2-(2-(p-formyl-phenoxy)ethoxy)ethoxy)ethoxy)benzyl)A82846B [Compound 43] | 4

The substances below were run on Staphylococcus aureus X400 (assay: Standard broth micro-dilution MIC, Staphylococcus aureus X400). Details: not given.
Format: cell-based
Experimental: as §1

Substance | MIC [µg/mL]
N^4 -(4-(2-(4-(2-(p-formyl-phenoxy)ethoxycarbonyl)benzoyl-oxy)ethoxy)benzyl)vancomycin [Compound 44] | ≤ 0.06
N^4 -(4-(2-(2-(2-(p-formyl-phenoxy)ethoxy)ethoxy)ethoxy)benzyl)A82846B [Compound 43] | 2

The substances below were run on Staphylococcus aureus X778 (assay: Standard broth micro-dilution MIC, Staphylococcus aureus X778). Details: not given.
Format: cell-based
Experimental: as §1

Substance | MIC [µg/mL]
N^4 -(4-(2-(4-(2-(p-formyl-phenoxy)ethoxycarbonyl)benzoyl-oxy)ethoxy)benzyl)vancomycin [Compound 44] | ≤ 0.06
N^4 -(4-(2-(2-(2-(p-formyl-phenoxy)ethoxy)ethoxy)ethoxy)benzyl)A82846B [Compound 43] | 2

Each substance was assayed on Staphylococcus aureus 491 (assay: Standard broth micro-dilution MIC, Staphylococcus aureus 491). Details: not given.
Format: cell-based
Experimental: as §1

Substance | MIC [µg/mL]
N^4 -(4-(2-(4-(2-(p-formyl-phenoxy)ethoxycarbonyl)benzoyl-oxy)ethoxy)benzyl)vancomycin [Compound 44] | ≤ 0.06
N^4 -(4-(2-(2-(2-(p-formyl-phenoxy)ethoxy)ethoxy)ethoxy)benzyl)A82846B [Compound 43] | 0.5

The substances below were run on Staphylococcus aureus S13E (assay: not given). Details: not given.
Format: cell-based
Experimental: as §1

Substance | MIC [µg/mL]
N^4 -(4-(2-(4-(2-(p-formyl-phenoxy)ethoxycarbonyl)benzoyl-oxy)ethoxy)benzyl)vancomycin [Compound 44] | ≤ 0.06
N^4 -(4-(2-(2-(2-(p-formyl-phenoxy)ethoxy)ethoxy)ethoxy)benzyl)A82846B [Compound 43] | 2

What follows are substances tested on Staphylococcus aureus SA1199 (assay: Standard broth micro-dilution MIC, Staphylococcus aureus SA1199). Details: not given.
Format: cell-based
Experimental: as §1

Substance | MIC [µg/mL]
N^4 -(4-(2-(4-(2-(p-formyl-phenoxy)ethoxycarbonyl)benzoyl-oxy)ethoxy)benzyl)vancomycin [Compound 44] | ≤ 0.06
N^4 -(4-(2-(2-(2-(p-formyl-phenoxy)ethoxy)ethoxy)ethoxy)benzyl)A82846B [Compound 43] | 2

What follows are substances tested on Staphylococcus aureus SA1199A (assay: Standard broth micro-dilution MIC, Staphylococcus aureus SA1199A). Details: not given.
Format: cell-based
Experimental: as §1

Substance | MIC [µg/mL]
N^4 -(4-(2-(4-(2-(p-formyl-phenoxy)ethoxycarbonyl)benzoyl-oxy)ethoxy)benzyl)vancomycin [Compound 44] | ≤ 0.06
N^4 -(4-(2-(2-(2-(p-formyl-phenoxy)ethoxy)ethoxy)ethoxy)benzyl)A82846B [Compound 43] | 0.5

Each substance was assayed on Staphylococcus aureus SA119913 (assay: Standard broth micro-dilution MIC, Staphylococcus aureus SA119913). Details: not given.
Format: cell-based
Experimental: as §1

Substance | MIC [µg/mL]
N^4 -(4-(2-(4-(2-(p-formyl-phenoxy)ethoxycarbonyl)benzoyl-oxy)ethoxy)benzyl)vancomycin [Compound 44] | ≤ 0.06
N^4 -(4-(2-(2-(2-(p-formyl-phenoxy)ethoxy)ethoxy)ethoxy)benzyl)A82846B [Compound 43] | 4

The substances below were run on Staphylococcus haemolyticus 105 (assay: Standard broth micro-dilution MIC, Staphylococcus haemolyticus 105). Details: not given.
Format: cell-based
Experimental: as §1

Substance | MIC [µg/mL]
N^4 -(4-(2-(4-(2-(p-formyl-phenoxy)ethoxycarbonyl)benzoyl-oxy)ethoxy)benzyl)vancomycin [Compound 44] | 0.25
N^4 -(4-(2-(2-(2-(p-formyl-phenoxy)ethoxy)ethoxy)ethoxy)benzyl)A82846B [Compound 43] | 1

The substances below were run on Staphylococcus haemolyticus 415 (assay: Standard broth micro-dilution MIC, Staphylococcus haemolyticus 415). Details: not given.
Format: cell-based
Experimental: as §1

Substance | MIC [µg/mL]
N^4 -(4-(2-(4-(2-(p-formyl-phenoxy)ethoxycarbonyl)benzoyl-oxy)ethoxy)benzyl)vancomycin [Compound 44] | 2
N^4 -(4-(2-(2-(2-(p-formyl-phenoxy)ethoxy)ethoxy)ethoxy)benzyl)A82846B [Compound 43] | 8

The substances below were run on Staphylococcus epidermidis 270 (assay: Standard broth micro-dilution MIC, Staphylococcus epidermidis 270). Details: not given.
Format: cell-based
Experimental: as §1

Substance | MIC [µg/mL]
N^4 -(4-(2-(4-(2-(p-formyl-phenoxy)ethoxycarbonyl)benzoyl-oxy)ethoxy)benzyl)vancomycin [Compound 44] | 0.25
N^4 -(4-(2-(2-(2-(p-formyl-phenoxy)ethoxy)ethoxy)ethoxy)benzyl)A82846B [Compound 43] | 4

Each substance was assayed on Enterococcus faecium 180 (assay: Standard broth micro-dilution MIC, Enterococcus faecium 180). Details: not given.
Format: cell-based
Experimental: as §1

Substance | MIC [µg/mL]
N^4 -(4-(2-(4-(2-(p-formyl-phenoxy)ethoxycarbonyl)benzoyl-oxy)ethoxy)benzyl)vancomycin [Compound 44] | 4
N^4 -(4-(2-(2-(2-(p-formyl-phenoxy)ethoxy)ethoxy)ethoxy)benzyl)A82846B [Compound 43] | 8

Each substance was assayed on Enterococcus faecium 180-1 (assay: Standard broth micro-dilution MIC, Enterococcus faecium 180-1). Details: not given.
Format: cell-based
Experimental: as §1

Substance | MIC [µg/mL]
N^4 -(4-(2-(4-(2-(p-formyl-phenoxy)ethoxycarbonyl)benzoyl-oxy)ethoxy)benzyl)vancomycin [Compound 44] | ≤ 0.06
N^4 -(4-(2-(2-(2-(p-formyl-phenoxy)ethoxy)ethoxy)ethoxy)benzyl)A82846B [Compound 43] | 0.5

Each substance was assayed on Enterococcus faecalis 2041 (assay: Standard broth micro-dilution MIC, Enterococcus faecalis 2041). Details: not given.
Format: cell-based
Experimental: as §1

Substance | MIC [µg/mL]
N^4 -(4-(2-(4-(2-(p-formyl-phenoxy)ethoxycarbonyl)benzoyl-oxy)ethoxy)benzyl)vancomycin [Compound 44] | ≤ 0.06
N^4 -(4-(2-(2-(2-(p-formyl-phenoxy)ethoxy)ethoxy)ethoxy)benzyl)A82846B [Compound 43] | 1

What follows are substances tested on Enterococcus faecalis 276 (assay: Standard broth micro-dilution MIC, Enterococcus faecalis 276). Details: not given.
Format: cell-based
Experimental: as §1

Substance | MIC [µg/mL]
N^4 -(4-(2-(4-(2-(p-formyl-phenoxy)ethoxycarbonyl)benzoyl-oxy)ethoxy)benzyl)vancomycin [Compound 44] | ≤ 0.06
N^4 -(4-(2-(2-(2-(p-formyl-phenoxy)ethoxy)ethoxy)ethoxy)benzyl)A82846B [Compound 43] | 1

Each substance was assayed on Enterococcus gallinarum 245 (assay: Standard broth micro-dilution MIC, Enterococcus gallinarum 245). Details: not given.
Format: cell-based
Experimental: as §1

Substance | MIC [µg/mL]
N^4 -(4-(2-(4-(2-(p-formyl-phenoxy)ethoxycarbonyl)benzoyl-oxy)ethoxy)benzyl)vancomycin [Compound 44] | 0.25
N^4 -(4-(2-(2-(2-(p-formyl-phenoxy)ethoxy)ethoxy)ethoxy)benzyl)A82846B [Compound 43] | 0.5

What follows are substances tested on Haemophilus influenzae RD (assay: Standard broth micro-dilution MIC, Haemophilus influenzae RD). Details: not given.
Format: cell-based
Experimental: as §1

Substance | MIC [µg/mL]
N^4 -(4-(2-(4-(2-(p-formyl-phenoxy)ethoxycarbonyl)benzoyl-oxy)ethoxy)benzyl)vancomycin [Compound 44] | > 64
N^4 -(4-(2-(2-(2-(p-formyl-phenoxy)ethoxy)ethoxy)ethoxy)benzyl)A82846B [Compound 43] | > 64

What follows are substances tested on Escherichia coli EC14 (assay: Standard broth micro-dilution MIC, Escherichia coli EC14). Details: not given.
Format: cell-based
Experimental: as §1

Substance | MIC [µg/mL]
N^4 -(4-(2-(4-(2-(p-formyl-phenoxy)ethoxycarbonyl)benzoyl-oxy)ethoxy)benzyl)vancomycin [Compound 44] | > 64
N^4 -(4-(2-(2-(2-(p-formyl-phenoxy)ethoxy)ethoxy)ethoxy)benzyl)A82846B [Compound 43] | > 64

These substances were tested on Streptococcus pyogenes C203 (assay: Standard broth micro-dilution MIC, Streptococcus pyogenes C203). Details: not given.
Format: cell-based
Experimental: as §1

Substance | MIC [µg/mL]
N^4 -(4-(2-(4-(2-(p-formyl-phenoxy)ethoxycarbonyl)benzoyl-oxy)ethoxy)benzyl)vancomycin [Compound 44] | 0.06
N^4 -(4-(2-(2-(2-(p-formyl-phenoxy)ethoxy)ethoxy)ethoxy)benzyl)A82846B [Compound 43] | 0.06

What follows are substances tested on Streptococcus pneumoniae P1 (assay: Standard broth micro-dilution MIC, Streptococcus pneumoniae P1). Details: not given.
Format: cell-based
Experimental: as §1

Substance | MIC [µg/mL]
N^4 -(4-(2-(4-(2-(p-formyl-phenoxy)ethoxycarbonyl)benzoyl-oxy)ethoxy)benzyl)vancomycin [Compound 44] | 0.06
N^4 -(4-(2-(2-(2-(p-formyl-phenoxy)ethoxy)ethoxy)ethoxy)benzyl)A82846B [Compound 43] | 0.06

The substances below were run on vancomycin-resistant enterococci (assay: In Vitro Activity Against Enterococci, vancomycin-resistant strains). Details: representative vancomycin-resistant enterococci (Enterococcus faecium and Enterococcus faecalis).
Format: cell-based
Experimental: as §1

Substance | mean geometric MIC, Vancomycin Resistant Strains [µg/mL]
N^4 -(4-(2-(4-(2-(p-formyl-phenoxy)ethoxycarbonyl)benzoyl-oxy)ethoxy)benzyl)vancomycin [Compound 44] | 76
N^4 -(4-(2-(2-(2-(p-formyl-phenoxy)ethoxy)ethoxy)ethoxy)benzyl)A82846B [Compound 43] | > 128

The substances below were run on vancomycin-sensitive enterococci (assay: In Vitro Activity Against Enterococci, vancomycin-sensitive strains). Details: representative vancomycin-sensitive enterococci (Enterococcus faecium and Enterococcus faecalis).
Format: cell-based, Enterococcus faecium and Enterococcus faecalis
Experimental: as §1

Substance | mean geometric MIC, Vancomycin Sensitive Strains [µg/mL]
N^4 -(4-(2-(4-(2-(p-formyl-phenoxy)ethoxycarbonyl)benzoyl-oxy)ethoxy)benzyl)vancomycin [Compound 44] | 0.66
N^4 -(4-(2-(2-(2-(p-formyl-phenoxy)ethoxy)ethoxy)ethoxy)benzyl)A82846B [Compound 43] | 4.6
